From patent publication US8388986B2, “Use of cationic surfactants in cosmetic preparations” (priority 2001, dated 2013)

Key:
[1] = system: Clostridium perfringens ATCC 77454; format: cell-based; conditions: Gram + Bacteria
[2] = system: Listeria monocytogenes ATCC 7644; test: minimum inhibitory concentration; format: cell-based; conditions: Gram + Bacteria
[3] = system: Micrococcus luteus ATCC 9631; test: minimum inhibitory concentration; format: cell-based; conditions: Gram + Bacteria
[4] = system: Leuconostoc mesenteroides CETC 912; test: minimum inhibitory concentration; format: cell-based; conditions: Gram + Bacteria
[5] = system: Citrobacter freundii ATCC 22636; test: minimum inhibitory concentration; format: cell-based; conditions: Gram − Bacteria
[6] = system: Escherichia coli ATCC 8739; test: minimum inhibitory concentration; format: cell-based; conditions: Gram − Bacteria
[7] = system: Pseudomonas aeruginosa ATCC 9027; test: minimum inhibitory concentration; format: cell-based; conditions: Gram − Bacteria
[8] = system: Salmonella typhimurium ATCC 16028; test: minimum inhibitory concentration; format: cell-based; conditions: Gram − Bacteria
[9] = system: Mycobacterium phlei ATCC 41423; test: minimum inhibitory concentration; format: cell-based; conditions: Gram + Bacteria
[10] = system: Aspergillus niger ATCC 14604; test: minimum inhibitory concentration; format: cell-based; conditions: Fungi
[11] = system: Aureobasidium pullulans ATCC 9348; test: minimum inhibitory concentration; format: cell-based; conditions: Fungi
[12] = system: Chaetonium globosum ATCC 6205; test: minimum inhibitory concentration; format: cell-based; conditions: Fungi
[13] = system: Candida albicans ATCC 10231; test: minimum inhibitory concentration; format: cell-based; conditions: Yeast
[14] = system: Saccharomyces cerevisiae ATCC 9763; test: minimum inhibitory concentration; format: cell-based; conditions: Yeast
Fungi = test: preservative efficacy (Antimicrobial Effectiveness Testing USP 24th Edition) in cosmetic formulations; format: cell-based, Aspergillus niger ATCC 16404; conditions: 0.20 g of LAE
Method: This assay consists of the contamination of the protecting formulations with an inoculum mixture of 10^8 cfu/mL concentration, for each of the microorganisms, and the determination of the number of viable cells in the time. This inoculum mixture is composed of the following microorganisms:
The cosmetic composition to be analysed is divided into sterile containers with 50 g of product for each flask. Each container is inoculated with 0.5 mL of inoculum (10^8 cfu/mL). The target concentration is 10^6 cfu/mL, approximately. All the containers are kept at a temperature between 20-25° C. and are protected from light.
The level of the microbial contamination is checked at 0 hours, 7 days, 14 days and 28 days. The number of colonies is evaluated by dilution in buffer peptone with the appropriate neutraliser agent of the preservative. The culture media used for counting the microorganisms are: Soya triptone (35-37° C., 48 hours) for the determination of bacteria; Sabouraud agar with chloramphenicol for fungi and yeast (25° C., 3-5 days).
According to Antimicrobial Effectiveness Testing USP 24th Edition, 1999 (pp. 1809-1811), an antimicrobial preservative is considered to be effective in topically used products made with aqueous bases or vehicles, non-sterile nasal products and emulsions, including those applied to mucous membranes, if: • Not less than 2.0 logarithm reduction from the initial calculated bacteria's count is reached at 14 days and no increase from the 14 days' count at 28 days is detected; and • No increase from the initial calculated count of yeast and moulds is observed.

CCCCCCCCCCCC(=O)N[C@@H](CCCN=C(N)N)C(=O)OCC.Cl [LAE, ethyl ester of the lauramide of the arginine monohydrochloride]
M.I.C. [1]: 16 ppm
M.I.C. [2]: 10 ppm
M.I.C. [3]: 128 ppm
M.I.C. [4]: 32 ppm
M.I.C. [5]: 64 ppm
M.I.C. [6]: 32 ppm
M.I.C. [7]: 64 ppm
M.I.C. [8]: 32 ppm
M.I.C. [9]: 2 ppm
M.I.C. [10]: 32 ppm
M.I.C. [11]: 16 ppm
M.I.C. [12]: 16 ppm
M.I.C. [13]: 16 ppm
M.I.C. [14]: 32 ppm
viable count With LAE (Fungi; Example 1, oil-in-water emulsion with non-ionic surfactant, 7 days): <9.9 · 10^1 cfu/mL
viable count With LAE (Fungi; Example 1, oil-in-water emulsion with non-ionic surfactant, 14 days): <9.9 · 10^1 cfu/mL
viable count With LAE (Fungi; Example 1, oil-in-water emulsion with non-ionic surfactant, Initial): 1.7 · 10^4 cfu/mL
viable count With LAE (Fungi; Example 2, oil-in-water emulsion with an ionic emulsifier, 7 days): <9.9 · 10^1 cfu/mL
viable count With LAE (Fungi; Example 2, oil-in-water emulsion with an ionic emulsifier, 14 days): <9.9 · 10^1 cfu/mL
viable count With LAE (Fungi; Example 2, oil-in-water emulsion with an ionic emulsifier, Initial): 1.4 · 10^4 cfu/mL
viable count With LAE (Fungi; Example 3, water in oil emulsion with non-ionic emulsifiers, 7 days): <9.9 · 10^1 cfu/mL
viable count With LAE (Fungi; Example 3, water in oil emulsion with non-ionic emulsifiers, 14 days): <9.9 · 10^1 cfu/mL
viable count With LAE (Fungi; Example 3, water in oil emulsion with non-ionic emulsifiers, Initial): 1.0 · 10^4 cfu/mL
viable count With LAE (Fungi; Example 4, aqueous solution with a surfactants' mixture (bath gels, disodium cocoamfoacetate), 7 days): 2.7 · 10^2 cfu/mL
viable count With LAE (Fungi; Example 4, aqueous solution with a surfactants' mixture (bath gels, disodium cocoamfoacetate), 14 days): <9.9 · 10^1 cfu/mL
viable count With LAE (Fungi; Example 4, aqueous solution with a surfactants' mixture (bath gels, disodium cocoamfoacetate), Initial): 1.9 · 10^4 cfu/mL
viable count With LAE (Fungi; Example 5, aqueous solution with a surfactants' mixture (bath gels, disodium lauryl sulfosuccinate), 7 days): <9.9 · 10^1 cfu/mL
viable count With LAE (Fungi; Example 5, aqueous solution with a surfactants' mixture (bath gels, disodium lauryl sulfosuccinate), 14 days): <9.9 · 10^1 cfu/mL
viable count With LAE (Fungi; Example 5, aqueous solution with a surfactants' mixture (bath gels, disodium lauryl sulfosuccinate), Initial): 1.4 · 10^4 cfu/mL
viable count With LAE (Fungi; Example 6, hydroalcoholic gel (after-shaving lotions), 7 days): 4.1 · 10^2 cfu/mL
viable count With LAE (Fungi; Example 6, hydroalcoholic gel (after-shaving lotions), 14 days): <9.9 · 10^1 cfu/mL
viable count With LAE (Fungi; Example 6, hydroalcoholic gel (after-shaving lotions), Initial): 9.1 · 10^4 cfu/mL
viable count With LAE (Fungi; Example 7, facial tonic, 7 days): 1.3 · 10^2 cfu/mL
viable count With LAE (Fungi; Example 7, facial tonic, 14 days): <9.9 · 10^1 cfu/mL
viable count With LAE (Fungi; Example 7, facial tonic, Initial): 2.1 · 10^4 cfu/mL
viable count With LAE (Fungi; Example 8, mask-up cleaner, 7 days): 3.5 · 10^2 cfu/mL
viable count With LAE (Fungi; Example 8, mask-up cleaner, 14 days): <9.9 · 10^1 cfu/mL
viable count With LAE (Fungi; Example 8, mask-up cleaner, Initial): 7.6 · 10^4 cfu/mL
viable count With LAE (Fungi; Example 9, fluid oil-in-water emulsion with non-ionic surfactants (body oil), 7 days): 1.4 · 10^2 cfu/mL
viable count With LAE (Fungi; Example 9, fluid oil-in-water emulsion with non-ionic surfactants (body oil), 14 days): <9.9 · 10^1 cfu/mL
viable count With LAE (Fungi; Example 9, fluid oil-in-water emulsion with non-ionic surfactants (body oil), Initial): 7.6 · 10^4 cfu/mL
viable count With LAE (Fungi; Example 10, toothpaste formulation, 7 days): 1.6 · 10^2 cfu/mL
viable count With LAE (Fungi; Example 10, toothpaste formulation, 14 days): <9.9 · 10^1 cfu/mL
viable count With LAE (Fungi; Example 10, toothpaste formulation, Initial): 5.6 · 10^4 cfu/mL
viable count With LAE (Fungi; Example 11, aqueous solution with surfactants (shampoos), 7 days): 1.1 · 10^2 cfu/mL
viable count With LAE (Fungi; Example 11, aqueous solution with surfactants (shampoos), 14 days): <9.9 · 10^1 cfu/mL
viable count With LAE (Fungi; Example 11, aqueous solution with surfactants (shampoos), Initial): 9.6 · 10^4 cfu/mL
viable count With LAE (Fungi; Example 12, oil-in-water emulsion with non-ionic surfactants (face cream), 7 days): 8.7 · 10^2 cfu/mL
viable count With LAE (Fungi; Example 12, oil-in-water emulsion with non-ionic surfactants (face cream), 14 days): <9.9 · 10^1 cfu/mL
viable count With LAE (Fungi; Example 12, oil-in-water emulsion with non-ionic surfactants (face cream), Initial): 1.7 · 10^4 cfu/mL
viable count With LAE (Fungi; Example 13, oil-in-water emulsion with non-ionic surfactants (sun protector, polysorbate 60), 7 days): 2.7 · 10^2 cfu/mL
viable count With LAE (Fungi; Example 13, oil-in-water emulsion with non-ionic surfactants (sun protector, polysorbate 60), 14 days): <9.9 · 10^1 cfu/mL
